The target of one data set is T1, human NHE-1 (Homo sapiens, UniProt P19634).
T1 construct: expressed in transfected cells; host or cells: LAP-1 (parental cell line without endogenous NHE activity), G418-selected transfectants
In words: NHE-1 inhibition, FLIPR assay measuring recovery of pHi in transfected cell lines. The note with it: pHi recovery in transfected LAP-1 cell lines expressing human NHE-1, read-out: NHE1 inhibition IC50. It counts as cell-based. On the procedure: The NHE-1 inhibition IC50 was determined in an FLIPR assay by measurement of the recovery in pHi in transfected cell lines which express human NHE-1.
The assay was carried out in an FLIPR (fluorescent imaging plate reader) with black-walled 96-well microtiter plates with clear bases.
The growth medium for the transfected cells (Iscove+10% fetal calf serum) additionally contained G418 as selection antibiotic in order to ensure the presence of the transfected sequences.
The actual assay started with the removal of the growth medium and addition of 100 μl of loading buffer per well (5 μM BCECF-AM [2′,7′-bis(carboxyethyl)-5- (and -6-)carboxyfluorescein, acetoxymethyl ester] in 20 mM NH4Cl, 115 mM choline chloride, 1 mM MgCI2, 1 mM CaCI2, 5 mM KCI, 20 mM HEPES, 5 mM glucose; pH 7.4 [adjusted with KOH]). The cells were then incubated at 37° C. for 20 minutes. This incubation led to loading of the cells with the fluorescent dye whose fluorescence intensity depends on pHi, and with NH4Cl which makes the cells slightly alkaline. The nonfluorescent dye precursor BCECF-AM is, as ester, membrane-permeable. The actual dye BCECF is not membrane-permeable but is liberated inside cells by esterases.
After this incubation for 20 minutes, the loading buffer which contained NH4Cl and free BCECF-AM was removed by washing three times in a cell washer (Tecan Columbus) with in each case 400 μl of washing buffer (133.8 mM choline chloride, 4.7 mM KCI, 1.25 mM MgCI2, 1.25 mM CaCI2, 0.97 mM K2HPO4, 0.23 mM KH2PO4, 5 mM HEPES, 5 mM glucose; pH 7.4 [adjusted with KOH]). The residual volume remaining in the wells was 90 μl (50-125 μl possible). This washing step removed the free BCECF-AM and resulted, as a consequence of the removal of the external NH4^+ ions, in intracellular acidification (˜pHi 6.3-6.4).
This may eventually lead to cell death if it persists long enough.
It was important at this point that the washing buffer was sodium-free (<1 mM) because extracellular sodium ions would lead to an instantaneous recovery of the pHi through the activity of the cloned NHE isoforms.
It was likewise important for all the buffers used (loading buffer, washing buffer, recovery buffer) not to contain any HCO3^− ions, because the presence of bicarbonate would lead to activation of interfering bicarbonate-dependent pHi regulatory systems present in the parental LAP-1 cell line.
The microtiter plates with the acidified cells were then (up to 20 minutes after the acidification) transferred to the FLIPR. In the FLIPR, the intracellular fluorescent dye was excited by light with a wavelength of 488 nm generated by an argon laser, and the measured parameters (laser power, illumination time and aperture of the CCD camera incorporated in the FLIPR) were chosen so that the average fluorescence signal per well was between 30 000 and 35 000 relative fluorescence units.
The actual measurement in the FLIPR started with a photograph being taken by the CCD camera every two seconds under software control. After ten seconds, the recovery of the intracellular pH was initiated by adding 90 μl of recovery buffer (133.8 mM NaCl, 4.7 mM KCI, 1.25 mM MgCI2, 1.25 mM CaCI2, 0.97 mM K2HPO4, 0.23 mM KH2PO4, 10 mM HEPES, 5 mM glucose; pH 7.4 [adjusted with NaOH]) by means of the 96-well pipettor incorporated in the FLIPR.
Positive control wells (100% NHE activity) were those to which pure recovery buffer was added, while negative controls (0% NHE activity) received washing buffer. Recovery buffer with twice the concentration of test substance was added to all the other wells. Measurement in the FLIPR terminated after 60 measurements (two minutes).
The raw data are exported into the ActivityBase program. This program firstly calculates the NHE activities for each tested substance concentration and, from these, the IC50 values for the substances. […]

Data set [1] is described as follows: In vivo pharmacokinetics, profiling with the "n in one method". The note with it: iv; fasting male beagle dog, single i.v. bolus into jugular vein, about 1 mg/kg of each substance, given together, plasma; read-out: Half-life t½ (converted). The protocol:
In vivo pharmacokinetics—profiling with the “n in one method”
The exposure data and the half-life were determined as characteristic follows:
Two NHE-1 inhibiotors of the invention (example 1 and example 9) and a known NHE-1 reference subtance (cariporide)
[drawing 36] where dissolved in the slightly acidic aqueous medium (water, pH 4, adjusted with 1 M hydrochloric acid). The concentration of the aqueous formulation prepared in this way was about 1.5 mg of each substance per 1 g of solution. 10 ml of this formulation were administered once as bolus by means of a catheter into the jugular vein of a fasting male beagle dog (dose about 1 mg of each administered substance per kg of the dog's body weight). Blood samples were obtained by means of a second catheter after 5 min, 15 min, 30 min, 1 h, 2 h, 4 h, 8 h and 24 h, and heparinized plasma was prepared by centrifugation at 1000 G in appropriate plasma tubes.
The plasma samples were worked up and quantified by MS/MS after an HPLC separation. Simultaneous determination of a plurality of substances was possible with this method owing to its high specificity. The half-lives could be calculated using the WinNonlin computer program from the concentration-time plots (see FIG. 1) and compared with the half-life of the known NHE-1 reference substance. Since the various substances were measured in the same animal at the same time, the result was an accurate comparison of the compounds, and a ranking of the half-lives was possible.

The values that follow come from patent publication US7381841B2, “Pentafluorosulfanylphenyl-substituted benzoylguanidines, processes for their preparation, their use as medicament or diagnostic aid, and medicament comprising them” (Sanofi-Aventis Deutschland GmbH, priority 2003, dated 2008).

pIC50: −log10 of the molar value.

T1 sequence (P19634 whole entry): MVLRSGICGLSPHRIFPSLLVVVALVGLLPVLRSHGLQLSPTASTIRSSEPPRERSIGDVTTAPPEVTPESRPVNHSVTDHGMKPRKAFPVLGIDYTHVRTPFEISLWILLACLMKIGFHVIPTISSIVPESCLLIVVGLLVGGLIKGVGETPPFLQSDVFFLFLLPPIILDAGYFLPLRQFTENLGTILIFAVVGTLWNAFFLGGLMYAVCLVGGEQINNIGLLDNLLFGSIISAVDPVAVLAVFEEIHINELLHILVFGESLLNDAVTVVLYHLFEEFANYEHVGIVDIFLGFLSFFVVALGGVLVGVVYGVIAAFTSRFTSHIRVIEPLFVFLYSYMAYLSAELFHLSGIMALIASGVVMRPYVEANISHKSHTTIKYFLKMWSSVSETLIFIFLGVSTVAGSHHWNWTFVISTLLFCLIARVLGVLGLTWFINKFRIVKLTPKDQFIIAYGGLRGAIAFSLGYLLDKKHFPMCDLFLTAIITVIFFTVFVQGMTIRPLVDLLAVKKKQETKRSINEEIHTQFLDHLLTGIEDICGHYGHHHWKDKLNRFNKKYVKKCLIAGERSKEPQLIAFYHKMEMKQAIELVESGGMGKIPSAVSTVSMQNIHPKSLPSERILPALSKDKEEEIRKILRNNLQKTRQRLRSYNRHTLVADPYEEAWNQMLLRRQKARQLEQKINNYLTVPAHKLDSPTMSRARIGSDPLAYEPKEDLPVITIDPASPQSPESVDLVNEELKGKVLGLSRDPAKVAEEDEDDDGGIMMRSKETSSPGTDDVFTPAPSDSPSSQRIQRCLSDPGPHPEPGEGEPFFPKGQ

As for `Cc1cc(-c2ccc(S(F)(F)(F)(F)F)cc2C)c(S(C)(=O)=O)cc1C(=O)N=C(N)N` [Example 11, N-(2-Methanesulfonyl-5,2′-dimethyl-4′-pentafluorosulfanylbiphenyl-4-carbonyl)guanidine], the pIC50 (in general, the IC50 on a negative log10 scale, so that one unit is a factor of ten) on human NHE-1 was 7.09.
As for `Cc1cc(Nc2ccc(S(F)(F)(F)(F)F)cc2)c(S(C)(=O)=O)cc1C(=O)N=C(N)N` [Example 6, N-[5-Methanesulfonyl-2-methyl-4-(4-pentafluorosulfanylphenyl-amino)benzoyl]guanidine], on human NHE-1, the pIC50 is 7.57.
For the compound `Cc1cc(N(C)c2cccc(S(F)(F)(F)(F)F)c2)c(S(C)(=O)=O)cc1C(=O)N=C(N)N` [Example 7, N-{5-Methanesulfonyl-2-methyl-4-[methyl-(3-pentafluorosulfanylphenyl)-amino]benzoyl}guanidine], the pIC50 at human NHE-1 was 7.84.
`Cc1cc(-c2ccc(S(F)(F)(F)(F)F)cc2)c(S(C)(=O)=O)cc1C(=O)N=C(N)N` [Example 9, N-(2-Methanesulfonyl-5-methyl-4′-pentafluorosulfanylbiphenyl-4-carbonyl)guanidine]: the melting point (in general, the temperature, or range, at which the solid turns liquid) lay in the range of 238 to 240 °C. For the same compound, the pIC50 at human NHE-1 is 8.68. For the same compound, the half-life – broadly, how long it takes for the measured level to halve – in data set [1] is 39.9 h.
For the compound `Cc1cc(-c2cccc(S(F)(F)(F)(F)F)c2)c(S(C)(=O)=O)cc1C(=O)N=C(N)N` [Example 10, N-(2-Methanesulfonyl-5-methyl-3′-pentafluorosulfanylbiphenyl-4-carbonyl)guanidine], the melting point fell in the range of 169 to 175 °C. In addition, the pIC50 at human NHE-1 was 7.41.
On to `Cc1cc(Nc2cccc(S(F)(F)(F)(F)F)c2)c(S(C)(=O)=O)cc1C(=O)N=C(N)N` [Example 5, N-[5-Methanesulfonyl-2-methyl-4-(3-pentafluorosulfanylphenylamino)-benzoyl]guanidine], for which the negative logarithm of the IC50 (pIC50) at human NHE-1 was 8.19.
For `Cc1cc(Oc2ccc(S(F)(F)(F)(F)F)cc2)c(S(C)(=O)=O)cc1C(=O)N=C(N)N` [Example 2, N-[5-Methanesulfonyl-2-methyl-4-(4-pentafluorosulfanylphenoxy)-benzoyl]guanidine], the pIC50 at human NHE-1 is 8.72.
In the case of `CC(C)c1ccc(C(=O)N=C(N)N)cc1S(C)(=O)=O.CS(=O)(=O)O` [cariporide, reference compound], the half-life in data set [1] is 4.1 h.
For `Cc1cc(N(C)c2ccc(S(F)(F)(F)(F)F)cc2)c(S(C)(=O)=O)cc1C(=O)N=C(N)N` [Example 8, N-{5-Methanesulfonyl-2-methyl-4-[methyl-(4-pentafluorosulfanyl-phenyl)amino]benzoyl}guanidine], the pIC50 on human NHE-1 is 8.43.
`Cc1cc(Oc2cccc(S(F)(F)(F)(F)F)c2)c(S(C)(=O)=O)cc1C(=O)N=C(N)N` [Example 1, N-[5-Methanesulfonyl-2-methyl-4-(3-pentafluorosulfanylphenoxy)-benzoyl]guanidine] had a melting point of 166 to 168 °C. For the same compound, the pIC50 at human NHE-1 was 8.41. In addition, in data set [1], the half-life was 20.2 h.
Regarding `Cc1cc(Sc2ccc(S(F)(F)(F)(F)F)cc2)c(S(C)(=O)=O)cc1C(=O)N=C(N)N` [Example 3, N-[5-Methanesulfonyl-2-methyl-4-(4-pentafluorosulfanylphenylsulfanyl)benzoyl]-guanidine], the pIC50 at human NHE-1 is 8.33.
Same read-out and setting: then `Cc1cc(S(=O)(=O)c2ccc(S(F)(F)(F)(F)F)cc2)c(S(C)(=O)=O)cc1C(=O)N=C(N)N` [Example 4, N-[5-Methanesulfonyl-2-methyl-4-(4-pentafluorosulfanylphenylsulfonyl)-benzoyl]guanidine], with 5.33.
